Results on 5 molecules are retold here after US8765152B2, “Pharmaceutical or neutraceutical formulation” (Evonik Roehm GmbH, priority 2010, dated 2014).

Data set [1] has as its system Caco-2-cell monolayer. The data set can be described thus: TEER, pure penetration promotor, Caco-2 cell monolayer (Example 17). The class given is cell-based. Conditions: positive control 0.1%. The method, then: The penetration promoter in the sense of the present invention may be defined by reducing the initial TEER-value of the buffer solution without penetration promotor (100%) to 50% or less, preferably 40% or less, preferably 30% or less, preferably 20% or less in the presence of the penetration promotor at a concentration of 1 mg/ml after 60 min measured in a Caco-2-cell monolayer culture as transport barrier.
TEER-Testing was performed analogous to example 12. EUDRAGIT® E acetate=EUDRAGIT® E dissolved in water by addition of acetic acid until clear solution was obtained; EUDRAGIT® E PO base=dispersion of EUDRAGIT® E PO (powder form of EUDRAGIT® E) in water (not dissolved); chitosan acetate=chitosan dissolved in water by addition of acetic acid until clear solution was obtained.

Data set [2] concerns Caco-2-cell monolayer. The data set can be described thus: TEER, cationic penetration promotor/anionic active ingredient mixtures (Example 18). The class given is cell-based. The protocol: TEER-Testing was performed analogous to example 12.
The following mixtures in HBSS-buffers were tested
Desmopressin acetate=Desmo,
EUDRAGIT® E Carbonate=E (s. description: carbonated amino(meth)acrylate copolymer)
Bowman Birk Inhibitor=BBI
Heparin: Low molecular weight heparin (LMW-Heparine); Fraxiparin™ (Nadroparin calcium); 0.6 ml ready to use syringe for subcutaneous injection (5700 IU anti-Xa/mg); Ch.B.: 3394-1; Glaxo Smith Kline

Another data set deals with Pancreatin. In words: In-vitro pancreatic enzyme inhibition test, degradation of desmopressin acetate by pancreatin (Example 14). The class given is biochemical. The following applies: for desmopressin acetate remaining in presence of pancreatin: control solutions (positive control 1 mg/ml BBI final). The method, then:
In-Vitro Pancreatic Enzyme Inhibition Test of the Preparations of Examples 1, 4 and 5
Inhibition experiments were performed using a new study design considering the dissolution of the pellets.
80 mg of each formulation were stirred in 10 ml of HBSS pH 5.8 at the lowest stirring speed available. The stirring was stopped after 30 min and the suspensions allowed to settle down before an aliquot (2 ml) was drawn and mixed with 2 mL of a solution containing 80 μg·ml^−1 of Desmopressin acetate in HBSS buffer pH 6.5. The pH of the solutions was measured but not adjusted.
As a negative control 2 ml of HBSS buffer were mixed with 2 ml of a solution containing 80 μg·ml^−1 of Desmopressin acetate in HBSS buffer pH 6.5. The pH of the solutions was measured but not adjusted.
As a positive control a solution containing 4 mg of BBI per ml in HBSS was used. 2 ml of the solution were mixed with 2 ml of a solution containing 80 μg·ml^−1 of Desmopressin acetate in HBSS buffer pH 6.5. The pH of the solutions was measured but not adjusted.
200 μL of the prepared solutions were mixed with 200 μl of a Pancreatin solution (20 mg·ml^−1) and incubated for 1, 2 and 3 h at 37° C. Each experiment was performed in triplicate (three individually prepared solutions).
(Final concentrations in the positive control: 1 mg/ml BBI, 20 μg/ml desmopressin actuate and 10 mg/ml pancreatin)
For the 100% value 80 mg pellets were stirred in 10 ml HBSS pH 5.8 for 30 min and homogenized using an ultraturrax. The suspension was stirred for further 15 minutes and allowed to settle down.
The supernatant was collected and further diluted with Desmopressin acetate in HBSS buffer pH 6.5 as described above. The pH of the solutions was measured but not adjusted.
For the starting values (t0) the mixture was directly added to 400 μl of acetonitrile and diluted with 1200 μL of HBSS buffer pH 6.5. The solution were analysed by HPLC using a RP-18-column as a stationary phase and a water/acetonitrile-mixture (80:20) as eluent phase at a wavelength of 220 nm.

The conditions of data set [3]: orally ingested; cited from earlier work.
The mark [4] stands for this setting: listed as buffer (baseline), mean of n = 3.

Turning to `CCCCCCCCCCCCOS(=O)(=O)[O-].[Na+]` [Example 18h, Sodiumdodecylsufate], the Mean-TEER was determined as 12% in the data set with Caco-2-cell monolayer [1] (5 min); 4% with Caco-2-cell monolayer [1] (60 min); 10% in the data set on Caco-2-cell monolayer [1] (120 min); 12% in the data set on Caco-2-cell monolayer [1] (180 min); 15% in the data set on Caco-2-cell monolayer [1] (240 min); 100% in the data set with Caco-2-cell monolayer [1] (HBSS (0 min)). The “TEER in % of TEER in Medium during the test” value (“TEER in % of TEER” below) was 22% in the data set on Caco-2-cell monolayer [2] (0 min); 16% in the data set with Caco-2-cell monolayer [2] (15 min); 16% in the data set with Caco-2-cell monolayer [2] (30 min); 12% in the data set on Caco-2-cell monolayer [2] (60 min); 16% with Caco-2-cell monolayer [2] (90 min); 12% with Caco-2-cell monolayer [2] (120 min). Also, the figures for the “TEER in % of TEER” value in the data set with Caco-2-cell monolayer [2] (240 min) and in the data set with Caco-2-cell monolayer [2] (setting [4]) were 13% and 123%, respectively.
With Nadroparin calcium [Example 18d], the “TEER in % of TEER” value in the data set on Caco-2-cell monolayer [2] (0 min) was determined as 110%; in the data set on Caco-2-cell monolayer [2] (15 min) it was 102%; with Caco-2-cell monolayer [2] (30 min), 106%; in the data set with Caco-2-cell monolayer [2] (60 min), 105%; in the data set with Caco-2-cell monolayer [2] (90 min), 112%; in the data set with Caco-2-cell monolayer [2] (120 min) it was 111%. Also, the figures for the “TEER in % of TEER” value with Caco-2-cell monolayer [2] (240 min) and in the data set on Caco-2-cell monolayer [2] (setting [4]) were 104% and 118%, respectively.
`NC(=O)CC[C@@H]1NC(=O)[C@H](Cc2ccccc2)NC(=O)[C@H](Cc2ccc(O)cc2)NC(=O)CCSSC[C@@H](C(=O)N2CCC[C@H]2C(=O)N[C@H](CCCN=C(N)N)C(=O)NCC(N)=O)NC(=O)[C@H](CC(N)=O)NC1=O` [Example 18c, Desmopressin acetate]: the “TEER in % of TEER” value with Caco-2-cell monolayer [2] (0 min) was 119%; with Caco-2-cell monolayer [2] (15 min), 111%; with Caco-2-cell monolayer [2] (30 min) it was 115%; with Caco-2-cell monolayer [2] (60 min) it was 111%; in the data set on Caco-2-cell monolayer [2] (90 min) it was 118%; with Caco-2-cell monolayer [2] (120 min), 119%. Moreover, the “TEER in % of TEER” value in the data set with Caco-2-cell monolayer [2] (240 min) amounted to 109%; in the data set on Caco-2-cell monolayer [2] (setting [4]) it was 123%.
With `NC(=O)CC[C@@H]1NC(=O)[C@H](Cc2ccccc2)NC(=O)[C@H](Cc2ccc(O)cc2)NC(=O)CCSSC[C@@H](C(=O)N2CCC[C@H]2C(=O)N[C@H](CCCN=C(N)N)C(=O)NCC(N)=O)NC(=O)[C@H](CC(N)=O)NC1=O` [Desmopressin acetate], the “desmopressin acetate remaining in presence of pancreatin” value is reported as 100.00% in the data set with Pancreatin (0 min), 61.79% with Pancreatin (60 min), 50.51% in the data set with Pancreatin (120 min) and 33.54% in the data set with Pancreatin (180 min). Also, the recovery of desmopressin entry with Pancreatin (in the absence of the BBI, time not stated) is given as “more than 60%”.

B1: BBI: Bowman-Birk inhibitor from soy bean source (Sigma Aldrich); trypsin and chymotrypsin inhibitor (protein, UniProt P01055 40-110, looked up)
Bowman-Birk type proteinase …: DDESSKPCCDQCACTKSNPPQCRCSDMRLNSCHSACKSCICALSYPAQCFCVDITDFCYEPCKPSEDDKEN
In the case of B1, in data set [3], the “ingested bowman birk inhibitor absorbed in to the bloodstream” value is given as “Approximately 50%”. In addition, the “desmopressin acetate remaining in presence of pancreatin” value was 100.00% in the data set with Pancreatin (0 min), 98.82% in the data set with Pancreatin (60 min), 94.48% in the data set with Pancreatin (120 min) and 85.25% with Pancreatin (180 min). For the same molecule, the “inhibition of degradation of desmopressin acetate by pancreatin (in words)” value in the data set on Pancreatin (n=3) is reported as “remarkably reduce the degradation”.
